Source: patent US7892549B2, “Treatment with anti-ErbB2 antibodies” (Genentech, Inc., priority 1997, dated 2011)

Test system: metastatic breast cancer with overexpression of the ErbB2 (HER2) oncogene
Test: Randomized clinical study of chemotherapy with or without HERCEPTIN in patients
Assay type: in vivo, human

- syndrome of myocardial dysfunction similar to that observed with anthracyclines (Grade ¾): 0%
SMILES: CC(=O)O[C@H]1C(=O)[C@@]2(C)[C@H]([C@H](OC(=O)c3ccccc3)[C@]3(O)C[C@H](OC(=O)[C@H](O)[C@@H](NC(=O)c4ccccc4)c4ccccc4)C(C)=C1C3(C)C)[C@]1(OC(C)=O)CO[C@@H]1C[C@@H]2O [T, paclitaxel]
- AE(%), overall severe adverse events (median follow-up 10.5 months): 59%
